{
  "source": "ChEMBL document CHEMBL1122966",
  "about": "“Compactin (ML-236B) and related compounds as potential cholesterol-lowering agents that inhibit HMG-CoA reductase” (J Med Chem, 1985)",
  "key": {"[1]": {"molecular_target": "T1, 3-hydroxy-3-methylglutaryl-coenzyme A reductase (Rattus norvegicus, UniProt P51639)", "T1 sequence (P51639 whole entry)": "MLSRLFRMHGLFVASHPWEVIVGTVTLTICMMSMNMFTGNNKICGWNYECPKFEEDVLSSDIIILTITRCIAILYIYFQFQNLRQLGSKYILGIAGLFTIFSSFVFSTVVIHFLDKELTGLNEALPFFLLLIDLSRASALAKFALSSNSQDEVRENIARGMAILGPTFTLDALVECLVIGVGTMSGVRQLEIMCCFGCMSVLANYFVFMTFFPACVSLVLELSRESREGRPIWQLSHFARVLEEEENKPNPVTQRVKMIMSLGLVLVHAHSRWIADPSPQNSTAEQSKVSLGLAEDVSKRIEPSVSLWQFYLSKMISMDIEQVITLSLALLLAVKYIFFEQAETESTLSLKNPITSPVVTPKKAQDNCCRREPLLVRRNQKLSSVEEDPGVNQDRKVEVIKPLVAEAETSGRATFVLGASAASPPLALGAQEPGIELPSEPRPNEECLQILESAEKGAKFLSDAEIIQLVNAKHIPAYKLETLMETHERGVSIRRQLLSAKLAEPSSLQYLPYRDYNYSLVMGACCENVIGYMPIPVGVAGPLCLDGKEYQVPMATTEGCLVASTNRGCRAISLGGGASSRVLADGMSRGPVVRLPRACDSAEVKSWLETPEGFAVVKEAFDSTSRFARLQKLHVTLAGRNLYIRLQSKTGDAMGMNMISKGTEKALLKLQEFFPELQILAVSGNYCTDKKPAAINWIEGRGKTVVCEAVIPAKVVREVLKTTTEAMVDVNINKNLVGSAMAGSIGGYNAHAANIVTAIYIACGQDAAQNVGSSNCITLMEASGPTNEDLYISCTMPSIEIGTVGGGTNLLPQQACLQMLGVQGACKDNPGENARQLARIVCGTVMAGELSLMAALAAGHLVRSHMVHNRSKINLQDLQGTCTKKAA", "assay": "Binding affinity was determined against purified rat liver HMG-coA reductase enzyme"}, "[2]": {"organism": "Homo sapiens", "assay": "Ability to inhibit cholesterol biosynthesis from [14C]acetate in cultured human skin fibroblasts at the concentration of 1 uM", "type": "functional"}, "[3]": {"organism": "Homo sapiens", "assay": "Ability to inhibit cholesterol biosynthesis from [14C]acetate in cultured human skin fibroblasts at the concentration of 10 uM", "type": "functional"}, "[4]": {"organism": "Homo sapiens", "assay": "Ability to inhibit cholesterol biosynthesis from [14C]acetate in cultured human skin fibroblasts at the concentration of 10 nM", "type": "functional"}, "[5]": {"organism": "Homo sapiens", "assay": "Ability to inhibit cholesterol biosynthesis from [14C]acetate in cultured human skin fibroblasts at the concentration of 100 nM", "type": "functional"}, "[6]": {"organism": "Homo sapiens", "assay": "Ability to inhibit cholesterol biosynthesis from [14C]acetate in cultured human skin fibroblasts at the concentration of 1 nM", "type": "functional"}},
  "data": [
    {"smiles": "CC[C@H](C)C(=O)O[C@H]1CCC=C2C=C[C@H](C)[C@H](CC[C@@H]3C[C@@H](O)CC(=O)O3)[C@H]21", "note": "[MEVASTATIN]", "values": [
      {"measurement": "Ki", "setting": "[1]", "result": "~1", "unit": "nM"},
      {"measurement": "inhibition at 1 µM", "setting": "[2]", "result": 95, "unit": "%"},
      {"measurement": "inhibition at 10 µM", "setting": "[3]", "result": 100, "unit": "%"},
      {"measurement": "inhibition at 0.01 µM", "setting": "[4]", "result": 80, "unit": "%"},
      {"measurement": "inhibition at 0.1 µM", "setting": "[5]", "result": 90, "unit": "%"},
      {"measurement": "inhibition at 0.001 µM", "setting": "[6]", "result": 50, "unit": "%"}
    ]}
  ]
}
